Laboratory results as given in publication PMC6409085, “Three odorant-binding proteins are involved in the behavioral response of Sogatella furcifera to rice plant volatiles” (PeerJ, 2019).
“And” between values parts separate entries of the source, which are not always exact repeats. Equal values may be shown once.

What was measured:
SfurOBP3 = SfurOBP3 (Sogatella furcifera, UniProt V5T818); test: biochemical; assay type: binding; conditions: for Fluorescence competitive binding assay, fluorescence intensity: OBP3, three replicate columns
Chain of SfurOBP3 (V5T818 entry or part of it): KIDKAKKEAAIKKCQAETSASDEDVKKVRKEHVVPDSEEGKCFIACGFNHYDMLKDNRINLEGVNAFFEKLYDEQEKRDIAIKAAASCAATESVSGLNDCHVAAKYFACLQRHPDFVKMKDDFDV
Method in brief: (§1)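 1-NPN displacement assay with odorant competitor at 2–20 µM; protein and probe both 2.0 µM at pH 7.4. Ki is calculated from IC50 using the protein/1-NPN dissociation constant.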

SfurOBP11 = SfurOBP11 (Sogatella furcifera, UniProt V5T6E3); test: biochemical; assay type: binding
Chain of SfurOBP11 (V5T6E3 entry or part of it): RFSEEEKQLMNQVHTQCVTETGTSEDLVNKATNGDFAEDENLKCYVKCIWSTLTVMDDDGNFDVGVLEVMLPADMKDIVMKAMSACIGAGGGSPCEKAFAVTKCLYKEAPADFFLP
Method in brief: as §1

SfurOBP1 = SfurOBP1 (Sogatella furcifera, UniProt V5T8N5); test: biochemical; assay type: binding; conditions: for Fluorescence competitive binding assay, fluorescence intensity: OBP1, three replicate columns
Chain of SfurOBP1 (V5T8N5 entry or part of it): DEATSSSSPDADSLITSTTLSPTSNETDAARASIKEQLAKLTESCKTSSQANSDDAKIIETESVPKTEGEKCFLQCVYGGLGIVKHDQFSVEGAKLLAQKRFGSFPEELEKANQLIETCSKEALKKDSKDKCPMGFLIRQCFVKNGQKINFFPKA
Method in brief: as §1

SfurOBP2 = SfurOBP2 (Sogatella furcifera, UniProt V5T759); test: biochemical; assay type: binding
Chain of SfurOBP2 (V5T759 entry or part of it): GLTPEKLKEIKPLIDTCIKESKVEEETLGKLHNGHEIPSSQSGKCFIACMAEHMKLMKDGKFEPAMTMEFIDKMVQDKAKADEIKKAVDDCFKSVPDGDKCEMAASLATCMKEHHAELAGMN
Method in brief: as §1

S. furcifera adults = test: Y-tube olfactometer behavioral trials; assay type: in vivo, Sogatella furcifera; conditions: odorant 50 µL/L vs hexane; adults
Method in brief: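 Single S. furcifera adults (2 days post-emergence, starved 0.5 h) chose between odorant (100 µL of 50 µL/L on filter paper) and hexane control in a glass Y-tube, charcoal-filtered humidified air 300 mL/min per arm, 25 ± 1 °C, 50% RH. Choice scored if insect passed half an arm and stayed >1 min within 10 min; 45 insects per compound, chi-squared test.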

Question: How did the IC50 (SfurOBP3) turn out when `CCC/C=C/CO` [(E)-2-hexenol] was run?
Answer: > 20 µM

Question: What about the “Fluorescence competitive binding assay, fluorescence intensity” value (SfurOBP3; ligand concentration 2) of the same compound?
Answer: 55419 and 52631 and 56435

Question: What about the “Fluorescence competitive binding assay, fluorescence intensity” value (SfurOBP3; ligand concentration 4) of the same compound?
Answer: 52848 and 53720 and 53070

Question: And the “Fluorescence competitive binding assay, fluorescence intensity” value (SfurOBP3; ligand concentration 6)?
Answer: 56485 and 54348 and 51437

Question: What about the “Fluorescence competitive binding assay, fluorescence intensity” value (SfurOBP3; ligand concentration 8) of the same compound?
Answer: 53820 and 44741 and 53024

Question: And the “Fluorescence competitive binding assay, fluorescence intensity” value (SfurOBP3; ligand concentration 10)?
Answer: 50999 and 49511 and 49866

Question: And the “Fluorescence competitive binding assay, fluorescence intensity” value (SfurOBP3; ligand concentration 12)?
Answer: 51314 and 45497 and 46649

Question: And the “Fluorescence competitive binding assay, fluorescence intensity” value (SfurOBP3; ligand concentration 14)?
Answer: 46992 and 46379 and 46282

Question: And the “Fluorescence competitive binding assay, fluorescence intensity” value (SfurOBP3; ligand concentration 16)?
Answer: 39521 and 39562 and 39433

Question: What about the “Fluorescence competitive binding assay, fluorescence intensity” value (SfurOBP3; ligand concentration 18) of the same compound?
Answer: 45227 and 50180 and 45511

Question: And the “Fluorescence competitive binding assay, fluorescence intensity” value (SfurOBP3; ligand concentration 20)?
Answer: 47692 and 45313 and 40014

Question: What about the IC50 (SfurOBP11) of the same compound?
Answer: > 20 µM

Question: And the “Fluorescence intensity, fluorescence competitive binding assay, OBP11” value (shortened to “Fluorescence intensity … OBP11”) (SfurOBP11; ligand concentration 2, replicate 1)?
Answer: 34795

Question: What about the “Fluorescence intensity … OBP11” value (SfurOBP11; ligand concentration 2, replicate 2) of the same compound?
Answer: 32362

Question: What about the “Fluorescence intensity … OBP11” value (SfurOBP11; ligand concentration 2, replicate 3) of the same compound?
Answer: 33570

Question: And the “Fluorescence intensity … OBP11” value (SfurOBP11; ligand concentration 4, replicate 1)?
Answer: 31605

Question: What about the “Fluorescence intensity … OBP11” value (SfurOBP11; ligand concentration 4, replicate 2) of the same compound?
Answer: 31826

Question: What about the “Fluorescence intensity … OBP11” value (SfurOBP11; ligand concentration 4, replicate 3) of the same compound?
Answer: 31807

Question: And the “Fluorescence intensity … OBP11” value (SfurOBP11; ligand concentration 6, replicate 1)?
Answer: 29600

Question: And the “Fluorescence intensity … OBP11” value (SfurOBP11; ligand concentration 6, replicate 2)?
Answer: 28910

Question: And the “Fluorescence intensity … OBP11” value (SfurOBP11; ligand concentration 6, replicate 3)?
Answer: 29255

Question: What about the “Fluorescence intensity … OBP11” value (SfurOBP11; ligand concentration 8, replicate 1) of the same compound?
Answer: 27040

Question: What about the “Fluorescence intensity … OBP11” value (SfurOBP11; ligand concentration 8, replicate 2) of the same compound?
Answer: 29546

Question: What about the “Fluorescence intensity … OBP11” value (SfurOBP11; ligand concentration 8, replicate 3) of the same compound?
Answer: 25961

Question: And the “Fluorescence intensity … OBP11” value (SfurOBP11; ligand concentration 10, replicate 1)?
Answer: 25687

Question: What about the “Fluorescence intensity … OBP11” value (SfurOBP11; ligand concentration 10, replicate 2) of the same compound?
Answer: 25600

Question: And the “Fluorescence intensity … OBP11” value (SfurOBP11; ligand concentration 10, replicate 3)?
Answer: 25774

Question: And the “Fluorescence intensity … OBP11” value (SfurOBP11; ligand concentration 12, replicate 1)?
Answer: 25617

Question: And the “Fluorescence intensity … OBP11” value (SfurOBP11; ligand concentration 12, replicate 2)?
Answer: 23726

Question: And the “Fluorescence intensity … OBP11” value (SfurOBP11; ligand concentration 12, replicate 3)?
Answer: 24242

Question: What about the “Fluorescence intensity … OBP11” value (SfurOBP11; ligand concentration 14, replicate 1) of the same compound?
Answer: 22896

Question: What about the “Fluorescence intensity … OBP11” value (SfurOBP11; ligand concentration 14, replicate 2) of the same compound?
Answer: 21710

Question: And the “Fluorescence intensity … OBP11” value (SfurOBP11; ligand concentration 14, replicate 3)?
Answer: 22816

Question: What about the “Fluorescence intensity … OBP11” value (SfurOBP11; ligand concentration 16, replicate 1) of the same compound?
Answer: 19721

Question: And the “Fluorescence intensity … OBP11” value (SfurOBP11; ligand concentration 16, replicate 2)?
Answer: 20050

Question: What about the “Fluorescence intensity … OBP11” value (SfurOBP11; ligand concentration 16, replicate 3) of the same compound?
Answer: 20211

Question: And the “Fluorescence intensity … OBP11” value (SfurOBP11; ligand concentration 18, replicate 1)?
Answer: 19470

Question: And the “Fluorescence intensity … OBP11” value (SfurOBP11; ligand concentration 18, replicate 2)?
Answer: 19537

Question: What about the “Fluorescence intensity … OBP11” value (SfurOBP11; ligand concentration 18, replicate 3) of the same compound?
Answer: 20671

Question: What about the “Fluorescence intensity … OBP11” value (SfurOBP11; ligand concentration 20, replicate 1) of the same compound?
Answer: 20038

Question: What about the “Fluorescence intensity … OBP11” value (SfurOBP11; ligand concentration 20, replicate 2) of the same compound?
Answer: 19843

Question: And the “Fluorescence intensity … OBP11” value (SfurOBP11; ligand concentration 20, replicate 3)?
Answer: 19956

Question: And the IC50 (SfurOBP1)?
Answer: > 20 µM

Question: And the “Fluorescence competitive binding assay, fluorescence intensity” value (SfurOBP1; ligand concentration 2 (μM))?
Answer: 5821 and 6205 and 6589

Question: What about the “Fluorescence competitive binding assay, fluorescence intensity” value (SfurOBP1; ligand concentration 4 (μM)) of the same compound?
Answer: 7444 and 7124 and 7270

Question: And the “Fluorescence competitive binding assay, fluorescence intensity” value (SfurOBP1; ligand concentration 6 (μM))?
Answer: 8585 and 7896 and 9273

Question: And the “Fluorescence competitive binding assay, fluorescence intensity” value (SfurOBP1; ligand concentration 8 (μM))?
Answer: 8091 and 7978 and 7865

Question: What about the “Fluorescence competitive binding assay, fluorescence intensity” value (SfurOBP1; ligand concentration 10 (μM)) of the same compound?
Answer: 8122 and 7477 and 6720

Question: What about the “Fluorescence competitive binding assay, fluorescence intensity” value (SfurOBP1; ligand concentration 12 (μM)) of the same compound?
Answer: 5971 and 6877 and 6423

Question: What about the “Fluorescence competitive binding assay, fluorescence intensity” value (SfurOBP1; ligand concentration 14 (μM)) of the same compound?
Answer: 6112 and 6019 and 6107

Question: What about the “Fluorescence competitive binding assay, fluorescence intensity” value (SfurOBP1; ligand concentration 16 (μM)) of the same compound?
Answer: 6252 and 5805 and 6056

Question: What about the “Fluorescence competitive binding assay, fluorescence intensity” value (SfurOBP1; ligand concentration 18 (μM)) of the same compound?
Answer: 8503 and 8229 and 10760

Question: What about the “Fluorescence competitive binding assay, fluorescence intensity” value (SfurOBP1; ligand concentration 20 (μM)) of the same compound?
Answer: 7495 and 8100 and 7787

Question: What about the IC50 (SfurOBP2) of the same compound?
Answer: > 20 µM

Question: And the “Fluorescence competitive binding assay, OBP2 (raw fluorescence reading)” value (SfurOBP2; ligand concentration 2 (unit not given), replicate column 1 of 3)?
Answer: 18290

Question: And the “Fluorescence competitive binding assay, OBP2 (raw fluorescence reading)” value (SfurOBP2; ligand concentration 2 (unit not given), replicate column 2 of 3)?
Answer: 18447

Question: What about the “Fluorescence competitive binding assay, OBP2 (raw fluorescence reading)” value (SfurOBP2; ligand concentration 2 (unit not given), replicate column 3 of 3) of the same compound?
Answer: 18531

Question: And the “Fluorescence competitive binding assay, OBP2 (raw fluorescence reading)” value (SfurOBP2; ligand concentration 4 (unit not given), replicate column 1 of 3)?
Answer: 17418

Question: What about the “Fluorescence competitive binding assay, OBP2 (raw fluorescence reading)” value (SfurOBP2; ligand concentration 4 (unit not given), replicate column 2 of 3) of the same compound?
Answer: 17308

Question: What about the “Fluorescence competitive binding assay, OBP2 (raw fluorescence reading)” value (SfurOBP2; ligand concentration 4 (unit not given), replicate column 3 of 3) of the same compound?
Answer: 17228

Question: What about the “Fluorescence competitive binding assay, OBP2 (raw fluorescence reading)” value (SfurOBP2; ligand concentration 6 (unit not given), replicate column 1 of 3) of the same compound?
Answer: 16794

Question: What about the “Fluorescence competitive binding assay, OBP2 (raw fluorescence reading)” value (SfurOBP2; ligand concentration 6 (unit not given), replicate column 2 of 3) of the same compound?
Answer: 16314

Question: What about the “Fluorescence competitive binding assay, OBP2 (raw fluorescence reading)” value (SfurOBP2; ligand concentration 6 (unit not given), replicate column 3 of 3) of the same compound?
Answer: 16504

Question: What about the “Fluorescence competitive binding assay, OBP2 (raw fluorescence reading)” value (SfurOBP2; ligand concentration 8 (unit not given), replicate column 1 of 3) of the same compound?
Answer: 15464

Question: What about the “Fluorescence competitive binding assay, OBP2 (raw fluorescence reading)” value (SfurOBP2; ligand concentration 8 (unit not given), replicate column 2 of 3) of the same compound?
Answer: 15780

Question: And the “Fluorescence competitive binding assay, OBP2 (raw fluorescence reading)” value (SfurOBP2; ligand concentration 8 (unit not given), replicate column 3 of 3)?
Answer: 16125

Question: What about the “Fluorescence competitive binding assay, OBP2 (raw fluorescence reading)” value (SfurOBP2; ligand concentration 10 (unit not given), replicate column 1 of 3) of the same compound?
Answer: 15191

Question: What about the “Fluorescence competitive binding assay, OBP2 (raw fluorescence reading)” value (SfurOBP2; ligand concentration 10 (unit not given), replicate column 2 of 3) of the same compound?
Answer: 14875

Question: What about the “Fluorescence competitive binding assay, OBP2 (raw fluorescence reading)” value (SfurOBP2; ligand concentration 10 (unit not given), replicate column 3 of 3) of the same compound?
Answer: 15159

Question: And the “Fluorescence competitive binding assay, OBP2 (raw fluorescence reading)” value (SfurOBP2; ligand concentration 12 (unit not given), replicate column 1 of 3)?
Answer: 14300

Question: What about the “Fluorescence competitive binding assay, OBP2 (raw fluorescence reading)” value (SfurOBP2; ligand concentration 12 (unit not given), replicate column 2 of 3) of the same compound?
Answer: 14543

Question: What about the “Fluorescence competitive binding assay, OBP2 (raw fluorescence reading)” value (SfurOBP2; ligand concentration 12 (unit not given), replicate column 3 of 3) of the same compound?
Answer: 14192

Question: And the “Fluorescence competitive binding assay, OBP2 (raw fluorescence reading)” value (SfurOBP2; ligand concentration 14 (unit not given), replicate column 1 of 3)?
Answer: 13523

Question: And the “Fluorescence competitive binding assay, OBP2 (raw fluorescence reading)” value (SfurOBP2; ligand concentration 14 (unit not given), replicate column 2 of 3)?
Answer: 13764

Question: What about the “Fluorescence competitive binding assay, OBP2 (raw fluorescence reading)” value (SfurOBP2; ligand concentration 14 (unit not given), replicate column 3 of 3) of the same compound?
Answer: 13447

Question: What about the “Fluorescence competitive binding assay, OBP2 (raw fluorescence reading)” value (SfurOBP2; ligand concentration 16 (unit not given), replicate column 1 of 3) of the same compound?
Answer: 12677

Question: What about the “Fluorescence competitive binding assay, OBP2 (raw fluorescence reading)” value (SfurOBP2; ligand concentration 16 (unit not given), replicate column 2 of 3) of the same compound?
Answer: 12355

Question: And the “Fluorescence competitive binding assay, OBP2 (raw fluorescence reading)” value (SfurOBP2; ligand concentration 16 (unit not given), replicate column 3 of 3)?
Answer: 12095

Question: And the “Fluorescence competitive binding assay, OBP2 (raw fluorescence reading)” value (SfurOBP2; ligand concentration 18 (unit not given), replicate column 1 of 3)?
Answer: 11796

Question: What about the “Fluorescence competitive binding assay, OBP2 (raw fluorescence reading)” value (SfurOBP2; ligand concentration 18 (unit not given), replicate column 2 of 3) of the same compound?
Answer: 11817

Question: What about the “Fluorescence competitive binding assay, OBP2 (raw fluorescence reading)” value (SfurOBP2; ligand concentration 18 (unit not given), replicate column 3 of 3) of the same compound?
Answer: 11503

Question: And the “Fluorescence competitive binding assay, OBP2 (raw fluorescence reading)” value (SfurOBP2; ligand concentration 20 (unit not given), replicate column 1 of 3)?
Answer: 11621

Question: And the “Fluorescence competitive binding assay, OBP2 (raw fluorescence reading)” value (SfurOBP2; ligand concentration 20 (unit not given), replicate column 2 of 3)?
Answer: 11220

Question: And the “Fluorescence competitive binding assay, OBP2 (raw fluorescence reading)” value (SfurOBP2; ligand concentration 20 (unit not given), replicate column 3 of 3)?
Answer: 11057

Question: And the “number of insects choosing hexane arm” value (S. furcifera adults)?
Answer: 9

Question: What about the “number of insects choosing volatilies arm” value (S. furcifera adults) of the same compound?
Answer: 8

Question: And the “number of insects failed (no choice)” value (S. furcifera adults)?
Answer: 24
